Measurements published in patent US20160024083A1, “COMPOUNDS AND METHODS FOR TREATING CANCERS” (HEALTH RESEARCH, INC., priority 2013, published 2016).

Key:
[1] = Tissue drug concentrations (tumor, liver, plasma) in treated CWR22R tumor-bearing mice; format: in vivo; conditions: 100 mg/kg, IP/IV
Description: (§1) We tested these compounds in an in vivo efficacy experiment using model of CRPC in SCID mice, CWR22R. Two compounds, PLA1079 and 1125, which were synthesized in the amount of 500 mg were tested in full scale experiment with either 5 IV daily injections or 10 IP daily injections. After 5 IP or IV injections intra-tumor concentration of the compounds were measured in few mice from this experiment.
Two other compounds, PLA1148 and 1098 (PK testing in FIGS. 8 and 9) were tested in a small scale efficacy experiment. Upon PK testing of the compound PLA1148 one mouse was injected twice with 10 min interval. However the concentration of the drug in plasma of this mouse was not twice, but >4 times higher than in mice injected once. […] It was decided to utilize this observation in an attempt to get higher plasma and tumor concentration of both compounds. Therefore in the pilot efficacy experiment in the same model of CWR22R cells mice were treated with 2 IP injections with 10 minute interval. Treatment with PLA1098 was carried out for two days. […] However this is so far the highest concentration found in tumor. […]
(§2) LC50 data of in vitro 72 hours cytotoxicity assay are included in this table for comparison.

Caveolin 1 = Caveolin 1 expression in sensitive versus resistant cells; format: cell-based; conditions: MDA MB 231 and MCF7 cells
Description: FIG. 12. Expression of Caveolinl in sensitive versus resistant cells. Caveolinl is expressed in resistant MDA MB 231 cells, but not in sensitive MCF7 cells.
Analysis of gene expression among 50 breast cancer cell lines differed in sensitivity as well as shRNA screening of resistant breast cancer cells identified Calveolin (FIG. 11) as a potential gene associated with resistance to c52. mRNA expression of Calveolin1 was tested among our sensitive and resistant cells as well as in response to c52 treatment. As expected Calveolin1 was expressed only in resistant cells, however it was not changed upon c52 treatment (FIG. 12). […] Calveolin1 was cloned in lentiviral expression vector and are now testing if overexpression of Calveolin1 in sensitive cells will make them resistant to c52 treatment.

CWR22R tumors = assay: In vivo efficacy, subcutaneous xenografts of CWR22R cells in SCID mice; conditions: CWR22R in SCID mice; 5 IV daily injections or 10 IP daily injections
Description: as §1
Two other compounds, PLA1148 and 1098 (PK testing in FIGS. 8 and 9) were tested in a small scale efficacy experiment. Upon PK testing of the compound PLA1148 one mouse was injected twice with 10 min interval. However the concentration of the drug in plasma of this mouse was not twice, but >4 times higher than in mice injected once. […] It was decided to utilize this observation in an attempt to get higher plasma and tumor concentration of both compounds. Therefore in the pilot efficacy experiment in the same model of CWR22R cells mice were treated with 2 IP injections with 10 minute interval. Treatment with PLA1098 was carried out for two days. […] However this is so far the highest concentration found in tumor.
Pilot efficacy experiments were run for compounds: PLA1163, PLA1148 using the same model of subcutaneous xenografts of CWR22R cells in SCID mice (FIGS. 18 and 19).

p21 = p21 expression upon treatment; format: cell-based; conditions: sensitive cells
androgen receptor = assay: Androgen receptor level / degradation in cells; format: cell-based; conditions: CWR22r or MCF7 cells with inhibited p53 activity
Source text: (§3) Also tested was the hypothesis that degradation of androgen receptor in prostate and breast cancer cells may be due to p53 induced accumulation of mdm2, which is also ubiquitin ligase for androgen receptor (FIG. 15). p53 was inactivated in several cell lines using different approaches what led to the blockade of mdm2 accumulation after c52 treatment. However androgen receptor was still degraded in c52 treated cells even in the absence of p53 activation and mdm2 accumulation (FIG. 16).

[2] = Plasma concentration (PK) after intravenous and intraperitoneal injections; format: in vivo; conditions: 50-100 mg/kg
Mdm2 = Mdm2 accumulation, Western Blot; format: cell-based; conditions: MCF7 cells with functionally inactive p53 (R175H, GSE56)
Description: Results of Western Blot analysis: CWR22r cells were treated with 1 uM c52 for indicated time intervals.
as §3

CWR22R = assay: cells; format: cell-based
Description: FIG. 21. Toxicity of PLA1055 to CWR22R cells in vitro depending on time of incubation. PLA1055 was added to CWR22R in full range of concentrations for the periods of time shown on the right. After that drug containing media were changed for drug free and survival of cells was detected at 72 hours after start of treatment using Alamar Blue assay (Promega).
This example provides a table (below) of the compounds of the present disclosure and their activity towards four different cell lines (i.e., CWR22R, HeLa, PC3, and MDA-MB-231). The IC50 for inhibition of growth is divided into 4 categories: A<1 μM, B 1-5 μM, C 5-20 μM, D>20 μM.
All compounds were tested for toxicity using 4 cells lines, target cells—CWR22R and non-target cells, Hela, PC3 and MDA-MB-231 (FIGS. 1A-F).
as §2
An in vitro experiment was run to detect the concentration of PLA1055 needed to kill all tumor cells in vitro (LC90) during different periods of time (30 minutes-72 hours, FIG. 21)).

CCCn1c2ccccc2c2cc(-c3nnco3)ccc21 [PLA1079]
Tumor concentration [1]: 24 to 48 nM | Caveolin1 expression upon treatment (Caveolin 1): did not change levels of Caveolinl expression | in vivo efficacy (CWR22R tumors): absence of in vivo efficacy | p21 expression (p21): overexpression of p21 in sensitive cells | AR level (androgen receptor): AR is being degraded | plasma concentration time course ([2]; after IV and IP injections): fast reduction of concentration during the first hour | bioavailability through IP injection ([2]; plasma concentrations similar or even higher after IP than IV): very high | Mdm2 level (Mdm2): Mdm2 is no longer overexpressed | CC50 (CWR22R): 120 nM
